Measurements from ChEMBL document CHEMBL4340530, “Peptide-based covalent inhibitors of MALT1 paracaspase” (Bioorg Med Chem Lett, 2019).
Active and inactive are the calls of the source. The rule behind the calls is not given here.

Experiments:
[1] = system: OCI-Ly3; experiment: Antiproliferative activity against human OCI-LY3 cells assessed as growth inhibition treated every 48 hrs measured after 96 hrs by CellTiter-Glo assay; format: functional
[2] = target: T1, Mucosa-associated lymphoid tissue lymphoma translocation protein 1 (Homo sapiens) (UniProt Q9UDY8); experiment: Inhibition of MALT1 (unknown origin) expressed in PMA/IO-stimulated human Raji Glosensor cells by reporter gene assay; format: cell-based
T1 sequence (whole entry): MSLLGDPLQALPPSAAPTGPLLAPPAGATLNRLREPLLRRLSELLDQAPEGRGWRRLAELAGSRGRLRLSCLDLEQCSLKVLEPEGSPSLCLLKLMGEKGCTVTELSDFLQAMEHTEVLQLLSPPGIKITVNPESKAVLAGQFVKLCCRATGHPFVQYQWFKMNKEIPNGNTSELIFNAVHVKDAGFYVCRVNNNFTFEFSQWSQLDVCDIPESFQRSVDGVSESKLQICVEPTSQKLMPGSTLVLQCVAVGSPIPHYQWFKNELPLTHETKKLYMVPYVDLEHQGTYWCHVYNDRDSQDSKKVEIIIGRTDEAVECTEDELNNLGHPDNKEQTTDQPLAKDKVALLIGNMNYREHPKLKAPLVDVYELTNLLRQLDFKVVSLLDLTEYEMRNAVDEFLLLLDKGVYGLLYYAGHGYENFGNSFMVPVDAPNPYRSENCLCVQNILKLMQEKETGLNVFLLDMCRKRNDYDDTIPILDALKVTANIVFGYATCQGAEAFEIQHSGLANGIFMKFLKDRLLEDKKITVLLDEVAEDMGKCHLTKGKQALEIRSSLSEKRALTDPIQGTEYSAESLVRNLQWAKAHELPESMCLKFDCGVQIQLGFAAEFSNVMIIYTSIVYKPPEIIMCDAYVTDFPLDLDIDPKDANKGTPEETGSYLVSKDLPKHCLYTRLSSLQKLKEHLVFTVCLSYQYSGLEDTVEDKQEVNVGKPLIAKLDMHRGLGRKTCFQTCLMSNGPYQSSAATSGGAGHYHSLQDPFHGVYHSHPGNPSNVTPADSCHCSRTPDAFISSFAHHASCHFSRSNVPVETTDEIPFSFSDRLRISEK

[3] = target: T2, Cathepsin K (Homo sapiens) (UniProt P43235); experiment: Inhibition of cathepsin K (unknown origin) at 10 uM relative to control
T2 sequence (whole entry): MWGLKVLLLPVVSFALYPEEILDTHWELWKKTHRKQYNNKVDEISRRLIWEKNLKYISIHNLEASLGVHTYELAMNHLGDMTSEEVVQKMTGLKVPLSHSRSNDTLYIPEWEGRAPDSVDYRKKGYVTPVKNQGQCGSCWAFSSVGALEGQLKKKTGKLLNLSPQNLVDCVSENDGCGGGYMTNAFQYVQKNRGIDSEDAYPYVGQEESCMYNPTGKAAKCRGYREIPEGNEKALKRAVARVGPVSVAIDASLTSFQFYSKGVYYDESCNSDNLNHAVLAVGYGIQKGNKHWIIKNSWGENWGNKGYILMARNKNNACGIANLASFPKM

[4] = target: T3, Cathepsin L2 (Homo sapiens) (UniProt O60911); experiment: Inhibition of cathepsin V (unknown origin) at 10 uM relative to control
T3 sequence (whole entry): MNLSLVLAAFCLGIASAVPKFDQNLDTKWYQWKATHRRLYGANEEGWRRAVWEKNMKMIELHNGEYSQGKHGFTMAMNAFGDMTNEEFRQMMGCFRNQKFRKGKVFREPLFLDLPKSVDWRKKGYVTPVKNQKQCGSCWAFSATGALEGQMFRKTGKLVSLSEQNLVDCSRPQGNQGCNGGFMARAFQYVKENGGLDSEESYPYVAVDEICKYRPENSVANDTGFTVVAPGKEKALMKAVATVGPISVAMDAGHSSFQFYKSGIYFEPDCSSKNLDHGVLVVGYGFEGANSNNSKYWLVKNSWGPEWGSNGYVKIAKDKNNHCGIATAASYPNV

[5] = target: Trypsin (Homo sapiens) (UniProt P07477+P07478+P35030); experiment: Inhibition of trypsin (unknown origin) at 10 uM relative to control; format: protein assay
[6] = target: Cathepsin B (Homo sapiens) (UniProt P07858); experiment: Inhibition of cathepsin B (unknown origin) at 1 uM relative to control
[7] = target: T3, Cathepsin L2 (Homo sapiens); experiment: Inhibition of cathepsin V (unknown origin) at 1 uM relative to control
[8] = target: Prothrombin (Homo sapiens) (UniProt P00734); experiment: Inhibition of thrombin (unknown origin) at 1 uM relative to control
[9] = target: Tryptase beta-2 (Homo sapiens) (UniProt P20231); experiment: Inhibition of tryptase b2 (unknown origin) at 1 uM relative to control
Sequence of Tryptase beta-2 (Homo sapiens) (P20231 whole entry): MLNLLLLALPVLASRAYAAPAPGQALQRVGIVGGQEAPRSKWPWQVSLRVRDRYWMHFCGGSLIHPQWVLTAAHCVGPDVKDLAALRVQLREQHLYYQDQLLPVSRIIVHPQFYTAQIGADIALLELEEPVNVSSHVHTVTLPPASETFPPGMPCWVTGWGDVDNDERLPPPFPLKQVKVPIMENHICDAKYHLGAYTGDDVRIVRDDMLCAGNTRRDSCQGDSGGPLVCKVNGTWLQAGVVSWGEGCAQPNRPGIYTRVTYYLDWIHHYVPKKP

[10] = target: Calpain1/2 (Homo sapiens) (UniProt P17655+P07384); experiment: Inhibition of calpain (unknown origin) at 100 nM relative to control; format: protein assay
Sequence of Calpain1/2 (Homo sapiens) (P07384 whole entry, looked up): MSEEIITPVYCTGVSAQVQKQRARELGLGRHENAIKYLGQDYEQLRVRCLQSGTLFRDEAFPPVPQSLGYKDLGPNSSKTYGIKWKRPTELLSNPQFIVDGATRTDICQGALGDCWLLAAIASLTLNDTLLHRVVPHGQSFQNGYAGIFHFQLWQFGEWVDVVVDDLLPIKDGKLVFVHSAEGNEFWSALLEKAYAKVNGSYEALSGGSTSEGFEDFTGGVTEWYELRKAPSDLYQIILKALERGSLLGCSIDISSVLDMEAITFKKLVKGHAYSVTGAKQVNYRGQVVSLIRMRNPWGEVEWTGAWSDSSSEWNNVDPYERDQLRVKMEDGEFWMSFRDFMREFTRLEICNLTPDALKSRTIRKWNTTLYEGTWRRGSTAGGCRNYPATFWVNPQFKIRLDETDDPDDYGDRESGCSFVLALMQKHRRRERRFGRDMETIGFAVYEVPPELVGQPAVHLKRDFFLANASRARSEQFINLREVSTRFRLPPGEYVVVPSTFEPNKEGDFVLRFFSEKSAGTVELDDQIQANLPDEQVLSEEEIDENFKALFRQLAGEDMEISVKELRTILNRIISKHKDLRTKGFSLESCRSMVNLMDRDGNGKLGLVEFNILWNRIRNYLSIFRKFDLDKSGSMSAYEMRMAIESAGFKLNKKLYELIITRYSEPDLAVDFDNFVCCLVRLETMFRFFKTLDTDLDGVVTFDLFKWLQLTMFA
Sequence of Calpain1/2 (Homo sapiens) (P17655 whole entry, looked up): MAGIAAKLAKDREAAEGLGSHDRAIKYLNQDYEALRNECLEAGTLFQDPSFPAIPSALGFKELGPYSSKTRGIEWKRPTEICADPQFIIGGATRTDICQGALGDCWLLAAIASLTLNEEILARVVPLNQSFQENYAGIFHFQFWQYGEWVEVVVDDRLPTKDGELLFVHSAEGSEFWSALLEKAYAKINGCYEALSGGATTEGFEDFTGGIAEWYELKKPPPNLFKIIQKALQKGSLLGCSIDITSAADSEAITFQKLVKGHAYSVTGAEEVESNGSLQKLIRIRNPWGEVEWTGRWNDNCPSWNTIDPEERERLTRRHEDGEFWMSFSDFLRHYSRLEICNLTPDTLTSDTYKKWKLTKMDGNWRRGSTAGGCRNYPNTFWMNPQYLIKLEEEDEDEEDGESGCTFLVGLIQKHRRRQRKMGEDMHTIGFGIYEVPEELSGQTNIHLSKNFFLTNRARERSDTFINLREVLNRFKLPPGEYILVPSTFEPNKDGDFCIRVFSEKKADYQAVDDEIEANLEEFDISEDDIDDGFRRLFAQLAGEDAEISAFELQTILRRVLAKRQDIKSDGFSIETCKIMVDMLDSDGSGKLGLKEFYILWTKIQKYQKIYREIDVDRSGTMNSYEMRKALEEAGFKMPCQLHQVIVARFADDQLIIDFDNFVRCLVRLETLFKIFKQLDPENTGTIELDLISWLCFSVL

[11] = target: Cathepsin B (Homo sapiens) (UniProt P07858); experiment: Inhibition of cathepsin B (unknown origin) at 100 nM relative to control
[12] = target: T2, Cathepsin K (Homo sapiens); experiment: Inhibition of cathepsin K (unknown origin) at 100 nM relative to control
[13] = target: Prothrombin (Homo sapiens) (UniProt P00734); experiment: Inhibition of thrombin (unknown origin) at 100 nM relative to control
[14] = target: Tryptase beta-2 (Homo sapiens) (UniProt P20231); experiment: Inhibition of tryptase b2 (unknown origin) at 100 nM relative to control
[15] = target: Caspase-1 (Homo sapiens) (UniProt P29466); experiment: Inhibition of caspase-1 (unknown origin) at 10 uM
Sequence of Caspase-1 (Homo sapiens) (P29466 120-297 limits assumed): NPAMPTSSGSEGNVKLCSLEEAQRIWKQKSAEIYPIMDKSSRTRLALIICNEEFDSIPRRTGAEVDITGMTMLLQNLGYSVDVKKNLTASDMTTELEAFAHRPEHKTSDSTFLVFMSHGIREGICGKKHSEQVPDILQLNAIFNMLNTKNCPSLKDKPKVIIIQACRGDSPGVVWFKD
Sequence of Caspase-1 (Homo sapiens) (P29466 317-404 limits assumed): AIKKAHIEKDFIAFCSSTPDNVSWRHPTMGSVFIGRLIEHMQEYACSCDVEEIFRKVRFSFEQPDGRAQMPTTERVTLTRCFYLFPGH

[16] = target: Caspase-4 (Homo sapiens) (UniProt P49662); experiment: Inhibition of caspase-4 (unknown origin) at 10 uM
Sequence of Caspase-4 (Homo sapiens) (P49662 81-270 limits assumed): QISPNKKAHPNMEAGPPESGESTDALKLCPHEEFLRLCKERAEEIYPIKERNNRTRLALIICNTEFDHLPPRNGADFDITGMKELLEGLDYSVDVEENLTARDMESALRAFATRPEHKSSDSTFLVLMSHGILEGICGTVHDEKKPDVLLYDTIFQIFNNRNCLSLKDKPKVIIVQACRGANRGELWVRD
Sequence of Caspase-4 (Homo sapiens) (P49662 290-377 limits assumed): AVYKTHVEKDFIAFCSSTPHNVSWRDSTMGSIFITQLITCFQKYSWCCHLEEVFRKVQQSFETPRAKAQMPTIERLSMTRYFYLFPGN

[17] = target: Caspase-5 (Homo sapiens) (UniProt P51878); experiment: Inhibition of caspase-5 (unknown origin) at 10 uM
Sequence of Caspase-5 (Homo sapiens) (P51878 137-327 limits assumed): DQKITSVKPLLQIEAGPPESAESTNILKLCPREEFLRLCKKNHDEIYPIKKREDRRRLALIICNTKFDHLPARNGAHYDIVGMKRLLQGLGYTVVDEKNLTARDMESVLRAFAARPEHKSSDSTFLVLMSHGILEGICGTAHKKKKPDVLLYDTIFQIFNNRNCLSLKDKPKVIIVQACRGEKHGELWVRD
Sequence of Caspase-5 (Homo sapiens) (P51878 347-434 limits assumed): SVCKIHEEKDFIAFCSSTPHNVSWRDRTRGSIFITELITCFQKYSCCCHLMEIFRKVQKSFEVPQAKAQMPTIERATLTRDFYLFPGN

[18] = target: Caspase-6 (Homo sapiens) (UniProt P55212); experiment: Inhibition of caspase-6 (unknown origin) at 10 uM
Sequence of Caspase-6 (Homo sapiens) (P55212 24-179 limits assumed): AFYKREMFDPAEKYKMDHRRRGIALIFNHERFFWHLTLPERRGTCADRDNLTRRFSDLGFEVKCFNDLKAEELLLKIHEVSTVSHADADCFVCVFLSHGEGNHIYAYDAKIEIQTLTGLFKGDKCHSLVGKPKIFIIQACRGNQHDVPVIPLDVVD
Sequence of Caspase-6 (Homo sapiens) (P55212 194-293 limits assumed): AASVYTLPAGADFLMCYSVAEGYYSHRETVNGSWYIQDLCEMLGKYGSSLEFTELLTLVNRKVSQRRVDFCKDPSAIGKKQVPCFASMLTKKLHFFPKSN

[19] = target: Caspase-7 (Homo sapiens) (UniProt P55210); experiment: Inhibition of caspase-7 (unknown origin) at 10 uM
Sequence of Caspase-7 (Homo sapiens) (P55210 24-198 limits assumed): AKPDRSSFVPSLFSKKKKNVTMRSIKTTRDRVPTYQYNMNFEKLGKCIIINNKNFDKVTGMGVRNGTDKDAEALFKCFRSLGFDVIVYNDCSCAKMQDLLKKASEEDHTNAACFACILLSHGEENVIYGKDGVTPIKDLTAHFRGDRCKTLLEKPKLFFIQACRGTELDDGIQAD
Sequence of Caspase-7 (Homo sapiens) (P55210 207-303 limits assumed): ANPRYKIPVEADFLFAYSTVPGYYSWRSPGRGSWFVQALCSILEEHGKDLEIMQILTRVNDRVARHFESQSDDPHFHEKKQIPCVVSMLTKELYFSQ

[20] = target: Caspase-9 (Homo sapiens) (UniProt P55211); experiment: Inhibition of caspase-9 (unknown origin) at 10 uM
Sequence of Caspase-9 (Homo sapiens) (P55211 1-315 limits assumed): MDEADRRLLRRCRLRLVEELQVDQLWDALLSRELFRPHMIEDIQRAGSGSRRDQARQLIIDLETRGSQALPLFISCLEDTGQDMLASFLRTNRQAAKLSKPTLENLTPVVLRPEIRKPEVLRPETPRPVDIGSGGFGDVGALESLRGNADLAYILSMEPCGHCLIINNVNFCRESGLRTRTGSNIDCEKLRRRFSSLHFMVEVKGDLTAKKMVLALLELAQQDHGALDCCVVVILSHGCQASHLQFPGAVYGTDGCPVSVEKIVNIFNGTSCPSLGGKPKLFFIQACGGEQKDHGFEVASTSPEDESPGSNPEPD
Sequence of Caspase-9 (Homo sapiens) (P55211 331-416 limits assumed): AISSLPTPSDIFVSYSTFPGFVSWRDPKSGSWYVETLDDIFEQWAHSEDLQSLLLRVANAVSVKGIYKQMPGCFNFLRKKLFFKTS

[21] = target: Cathepsin D (Homo sapiens) (UniProt P07339); experiment: Inhibition of cathepsin D (unknown origin) at 10 uM
Sequence of Cathepsin D (Homo sapiens) (P07339 65-162 limits assumed): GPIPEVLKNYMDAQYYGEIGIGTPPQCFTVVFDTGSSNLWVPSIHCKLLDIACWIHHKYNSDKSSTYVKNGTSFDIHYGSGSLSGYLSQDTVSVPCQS
Sequence of Cathepsin D (Homo sapiens) (P07339 169-412 limits assumed): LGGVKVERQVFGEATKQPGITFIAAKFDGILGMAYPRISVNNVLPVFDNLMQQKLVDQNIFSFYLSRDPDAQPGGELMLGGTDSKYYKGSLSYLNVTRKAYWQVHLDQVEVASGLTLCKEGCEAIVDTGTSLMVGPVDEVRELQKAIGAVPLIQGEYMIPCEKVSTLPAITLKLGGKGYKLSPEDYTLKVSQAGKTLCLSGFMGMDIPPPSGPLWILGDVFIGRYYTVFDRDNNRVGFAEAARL

[22] = target: Cathepsin G (Homo sapiens) (UniProt P08311); experiment: Inhibition of cathepsin G (unknown origin) at 10 uM
Sequence of Cathepsin G (Homo sapiens) (P08311 whole entry): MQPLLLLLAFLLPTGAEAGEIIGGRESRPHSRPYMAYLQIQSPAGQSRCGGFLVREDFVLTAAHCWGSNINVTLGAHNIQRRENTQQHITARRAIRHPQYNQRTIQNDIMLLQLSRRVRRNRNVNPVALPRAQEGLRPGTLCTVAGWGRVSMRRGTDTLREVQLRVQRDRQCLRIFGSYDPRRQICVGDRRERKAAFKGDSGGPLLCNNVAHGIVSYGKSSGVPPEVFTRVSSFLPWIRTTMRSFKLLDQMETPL

[23] = target: Coagulation factor X (Homo sapiens) (UniProt P00742); experiment: Inhibition of factor Xa (unknown origin) at 10 uM
Sequence of Coagulation factor X (Homo sapiens) (P00742 41-179 limits assumed): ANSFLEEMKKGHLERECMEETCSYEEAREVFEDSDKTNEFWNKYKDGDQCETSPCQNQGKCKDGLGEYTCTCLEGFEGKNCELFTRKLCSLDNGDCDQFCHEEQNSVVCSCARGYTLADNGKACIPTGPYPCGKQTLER
Sequence of Coagulation factor X (Homo sapiens) (P00742 235-488 limits assumed): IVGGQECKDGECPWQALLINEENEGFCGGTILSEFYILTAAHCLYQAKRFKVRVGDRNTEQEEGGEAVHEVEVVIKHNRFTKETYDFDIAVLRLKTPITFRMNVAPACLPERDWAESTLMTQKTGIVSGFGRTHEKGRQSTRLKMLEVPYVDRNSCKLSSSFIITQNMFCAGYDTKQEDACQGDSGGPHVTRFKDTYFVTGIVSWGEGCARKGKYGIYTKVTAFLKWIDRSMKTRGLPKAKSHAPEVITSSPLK

[24] = target: Kallikrein-2 (Homo sapiens) (UniProt P20151); experiment: Inhibition of KLK2 (unknown origin) at 10 uM
Sequence of Kallikrein-2 (Homo sapiens) (P20151 whole entry): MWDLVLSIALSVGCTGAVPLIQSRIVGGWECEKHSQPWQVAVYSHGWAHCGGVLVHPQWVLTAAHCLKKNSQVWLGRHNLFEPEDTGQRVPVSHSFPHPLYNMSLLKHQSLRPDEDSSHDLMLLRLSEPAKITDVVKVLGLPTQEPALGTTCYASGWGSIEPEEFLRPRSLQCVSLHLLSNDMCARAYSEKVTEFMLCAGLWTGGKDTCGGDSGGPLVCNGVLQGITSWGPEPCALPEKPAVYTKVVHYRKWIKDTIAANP

[25] = target: Urokinase-type plasminogen activator (Homo sapiens) (UniProt P00749); experiment: Inhibition of urokinase (unknown origin) at 10 uM
[26] = Half life in mouse microsomes; format: ADME, Microsome
[27] = system: OCI-Ly1; experiment: Antitumor activity against human OCI-LY1 cells xenografted in ip dosed NOD.CB17-Prkdc SCID mouse assessed as effect on tumor growth administered twice daily for 16 to 24 days measured 4 hrs post-last dose; format: functional, organism-based

CC(C)[C@H](NC(=O)c1ccc(Br)cc1)C(=O)N1CCC[C@H]1C(=O)N[C@@H](CCCNC(=N)N)C(=O)CF
GI50 [1]: 130 nM
IC50 [2]: 70 to 71 nM
inhibition [3]: 98.7%
inhibition [4]: 89.4%
inhibition [5]: 95.3%
inhibition [6]: 92.5%
inhibition [7]: 56.9%
inhibition [8]: 25.2%
inhibition [9]: 14%
inhibition [10]: 23.6%
inhibition [11]: 34.2%
inhibition [12]: 63.2%
inhibition [13]: 14.8%
inhibition [14]: 6.1%
inhibition [15]: Active
inhibition [16]: Active
inhibition [17]: Active
inhibition [18]: Active
inhibition [19]: Active
inhibition [20]: Active
inhibition [21]: Active
inhibition [22]: Active
inhibition [23]: Active
inhibition [24]: Active
inhibition [25]: Active
t1/2 [26]: > 2 h
Activity [27]: Active
